Reference: ChEMBL document CHEMBL1149754, “Synthesis and evaluation of a focused library of pyridine dicarbonitriles against prion disease” (Eur J Med Chem, 2008)

Experiments:
[1] = Inhibition of PrPSc formation in mouse SMB cells at 10 uM relative to control; format: functional
[2] = molecular target: Major prion protein (Homo sapiens) (UniProt P04156); experiment: Binding affinity to human prion protein by surface plasmon resonance assay
[3] = molecular target: Major prion protein (Mus musculus) (UniProt P04925); experiment: Binding affinity to mouse prion protein by surface plasmon resonance assay
Major prion protein (Mus musculus), sequence (P04925 whole entry): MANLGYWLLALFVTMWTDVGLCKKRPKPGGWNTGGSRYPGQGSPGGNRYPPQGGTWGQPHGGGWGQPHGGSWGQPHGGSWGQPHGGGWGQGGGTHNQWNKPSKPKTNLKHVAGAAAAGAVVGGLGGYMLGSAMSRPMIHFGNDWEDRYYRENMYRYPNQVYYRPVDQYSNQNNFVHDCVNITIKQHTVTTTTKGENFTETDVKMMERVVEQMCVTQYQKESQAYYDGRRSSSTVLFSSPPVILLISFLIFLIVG

[4] = Inhibition of PrPSc formation in mouse SMB cells; format: functional, cell-based
[5] = Inhibition of PrPSc formation in mouse SMB cells at 5 uM relative to control; format: functional
[6] = Toxicity against mouse SMB cells at 10 uM after 5 days by MTT assay; format: cell-based; settings: 120 h
[7] = Inhibition of PrPSc formation in mouse SMB cells at 1 uM relative to control; format: functional
[8] = Inhibition of PrPSc formation in mouse SMB cells at 0.05 uM relative to control; format: functional
[9] = Toxicity against mouse SMB cells after 5 days by MTT assay; format: cell-based; settings: 120 h
[10] = Inhibition of PrPSc formation in mouse SMB cells at 7.5 uM relative to control; format: functional

Row | Structure (SMILES) | inhibition at 10 µM [1] [%] | RUmax [2] [%] | RUmax [3] [%] | further results
1 | N#Cc1c(N)nc(Sc2ccc(O)cc2)c(C#N)c1-c1ccc2c(c1)OCO2 | 82 |  |  | 
2 | N#Cc1c(N)nc(SCc2ccccc2)c(C#N)c1-c1ccc(Cl)cc1 | 92 | 8.6 | 0 | 
3 | COC(=O)c1ccc(-c2c(C#N)c(N)nc(Sc3cccc(O)c3)c2C#N)cc1 | 77 | 8.4 | 0 | 
4 | N#Cc1c(N)nc(Sc2cccc(O)c2)c(C#N)c1-c1ccc2c(c1)OCO2 | 75 | 250 | 138 | 
5 | N#Cc1c(N)nc(Sc2ccc(Cl)cc2)c(C#N)c1-c1cccc(O)c1 |  | 15.7 | 8.9 | EC50 [4]: 3000 nM
6 | N#Cc1c(N)nc(Sc2cccc(O)c2)c(C#N)c1-c1ccc2c(c1)OCCO2 | 86 |  |  | 
7 | N#Cc1c(N)nc(Sc2cccc(O)c2)c(C#N)c1-c1cccs1 | 77 |  |  | 
8 | N#Cc1c(N)nc(Sc2cccc(Cl)c2)c(C#N)c1-c1ccc(Cl)cc1 | 71 |  |  | 
9 | COC(=O)c1cccc(Sc2nc(N)c(C#N)c(-c3ccc4c(c3)OCO4)c2C#N)c1 | 75 | 156 | 70.4 | 
10 | N#Cc1c(N)nc(Sc2ccc(Cl)cc2)c(C#N)c1-c1ccc(Cl)cc1 | 72 | 19.3 | 1.6 | 
11 | N#Cc1c(N)nc(SCc2ccccc2)c(C#N)c1-c1cccs1 | 81 | 55.5 | 52.6 | 
12 | N#Cc1c(N)nc(Sc2cccc(Cl)c2)c(C#N)c1-c1cccc(O)c1 |  |  |  | inhibition at 5 µM [5]: 36%; Activity [6]: Toxic
13 | COC(=O)c1cccc(Sc2nc(N)c(C#N)c(-c3ccc(Cl)cc3)c2C#N)c1 |  | 6.2 | 0 | inhibition at 1 µM [7]: 63%
14 | N#Cc1c(N)nc(Sc2cccc(Cl)c2)c(C#N)c1-c1ccc2c(c1)OCCO2 |  | 11.3 | 4.3 | EC50 [4]: 2500 nM
15 | N#Cc1c(N)nc(Sc2ccc(Cl)cc2)c(C#N)c1-c1cccs1 |  | 8.8 | 0 | EC50 [4]: 3000 nM
16 | N#Cc1c(N)nc(Sc2ccccc2)c(C#N)c1-c1ccc2c(c1)OCCO2 | 61 | 27.9 | 0 | 
17 | N#Cc1c(N)nc(SCc2ccccc2)c(C#N)c1-c1cccc(O)c1 | 113 | 96.5 | 112 | 
18 | COC(=O)c1cccc(Sc2nc(N)c(C#N)c(-c3cccs3)c2C#N)c1 | 87 |  |  | 
19 | N#Cc1c(N)nc(SCc2ccccc2)c(C#N)c1-c1ccc2c(c1)OCO2 | 79 |  |  | 
20 | N#Cc1c(N)nc(Sc2ccc(O)cc2)c(C#N)c1-c1ccc(Cl)cc1 | 90 |  |  | 
21 | N#Cc1c(N)nc(Sc2cccc(O)c2)c(C#N)c1-c1ccc(Cl)cc1 | 73 |  |  | 
22 | N#Cc1c(N)nc(Sc2cccc(Cl)c2)c(C#N)c1-c1ccc2c(c1)OCO2 | 96 | 78.6 | 10.5 | 
23 | N#Cc1c(N)nc(Sc2ccc(Cl)cc2)c(C#N)c1-c1ccc2c(c1)OCO2 | 67 |  |  | 
24 | N#Cc1c(N)nc(Sc2ccc(O)cc2)c(C#N)c1-c1cccs1 | 86 |  |  | 
25 | N#Cc1c(N)nc(Sc2cccc(Cl)c2)c(C#N)c1-c1ccco1 | 94 |  |  | 
26 | COC(=O)c1cccc(Sc2nc(N)c(C#N)c(-c3ccco3)c2C#N)c1 | 69 | 26.9 | 2.2 | 
27 | N#Cc1c(N)nc(Sc2ccccc2O)c(C#N)c1-c1ccc2c(c1)OCCO2 | 89 | 13.6 | 4.9 | 

Row | Structure (SMILES) | inhibition at 10 µM [1] [%] | RUmax [2] [%] | RUmax [3] [%] | further results
28 | COC(=O)c1ccc(-c2c(C#N)c(N)nc(Sc3ccccc3O)c2C#N)cc1 | 72 | 5.7 | 0 | 
29 | COC(=O)c1cccc(Sc2nc(N)c(C#N)c(-c3cccc(O)c3)c2C#N)c1 | 123 |  |  | 
30 | N#Cc1c(N)nc(SCc2ccccc2)c(C#N)c1-c1ccc2c(c1)OCCO2 | 94 |  |  | 
31 | COC(=O)c1ccc(-c2c(C#N)c(N)nc(Sc3cccc(Cl)c3)c2C#N)cc1 |  |  |  | inhibition at 5 µM [5]: 46%
32 | N#Cc1c(N)nc(Sc2cccc(O)c2)c(C#N)c1-c1cccc(O)c1 |  |  |  | inhibition at 5 µM [5]: 36%; Activity [6]: Toxic
33 | N#Cc1c(N)nc(Sc2ccccc2)c(C#N)c1-c1ccc2c(c1)OCO2 | 86 |  |  | 
34 | N#Cc1c(N)nc(Sc2ccccc2O)c(C#N)c1-c1cccs1 | 65 | 16.9 | 6.1 | 
35 | N#Cc1c(N)nc(Sc2ccc(Cl)cc2)c(C#N)c1-c1ccc2c(c1)OCCO2 | 68 |  |  | 
36 | COC(=O)c1cccc(Sc2nc(N)c(C#N)c(-c3ccc4c(c3)OCCO4)c2C#N)c1 |  |  |  | inhibition at 0.05 µM [8]: 44%
37 | N#Cc1c(N)nc(Sc2ccccc2O)c(C#N)c1-c1ccc(Cl)cc1 | 76 | 9.1 | 0 | 
38 | N#Cc1c(N)nc(Sc2cccc(Cl)c2)c(C#N)c1-c1cccs1 | 84 | 124 | 72.2 | 
39 | COC(=O)c1ccc(Sc2nc(N)c(C#N)c(-c3ccc(Cl)cc3)c2C#N)cc1 |  |  |  | Activity [9]: Toxic
40 | COC(=O)c1ccc(Sc2nc(N)c(C#N)c(-c3cccs3)c2C#N)cc1 | 90 |  |  | 
41 | N#Cc1c(N)nc(Sc2ccc(Cl)cc2)c(C#N)c1-c1ccco1 | 73 | 37 | 44.8 | 
42 | COC(=O)c1ccc(Sc2nc(N)c(C#N)c(-c3ccc(C(=O)OC)cc3)c2C#N)cc1 |  |  |  | EC50 [4]: 9000 nM
43 | N#Cc1c(N)nc(Sc2ccc(O)cc2)c(C#N)c1-c1ccco1 |  | 21.9 | 19.6 | inhibition at 0.05 µM [8]: 24%
44 | COC(=O)c1ccc(-c2c(C#N)c(N)nc(Sc3cccc(C(=O)OC)c3)c2C#N)cc1 |  |  |  | EC50 [4]: 8000 nM
45 | COC(=O)c1ccc(-c2c(C#N)c(N)nc(Sc3ccc(O)cc3)c2C#N)cc1 |  |  |  | inhibition at 7.5 µM [10]: 45%
46 | N#Cc1c(N)nc(Sc2ccc(O)cc2)c(C#N)c1-c1cccc(O)c1 | 85 |  |  | 
47 | COC(=O)c1ccc(Sc2nc(N)c(C#N)c(-c3cccc(O)c3)c2C#N)cc1 | 70 |  |  | 
48 | COC(=O)c1ccc(-c2c(C#N)c(N)nc(SCc3ccccc3)c2C#N)cc1 | 107 | 9.3 | 0 | 
49 | COC(=O)c1ccc(Sc2nc(N)c(C#N)c(-c3ccc4c(c3)OCCO4)c2C#N)cc1 |  | 6 | 0 | inhibition at 0.05 µM [8]: 23%
50 | N#Cc1c(N)nc(SCc2ccccc2)c(C#N)c1-c1ccco1 | 111 |  |  | 
51 | N#Cc1c(N)nc(Sc2ccc(O)cc2)c(C#N)c1-c1ccc2c(c1)OCCO2 |  |  |  | Activity [9]: Toxic
52 | COC(=O)c1ccc(-c2c(C#N)c(N)nc(Sc3ccc(Cl)cc3)c2C#N)cc1 | 73 | 10.6 | 2.4 | 
53 | COC(=O)c1ccc(Sc2nc(N)c(C#N)c(-c3ccco3)c2C#N)cc1 | 69 |  |  | 
